Columns and labels:
Assay type in all cases: in vivo
Design in all cases: key: 0 is no effect; 10 is complete control
[1] = test system: bedstraw (Galium aparine); test: Test B pre-/postemergence
Source text: (§1) Seeds of bedstraw (Galium aparine), blackgrass (Alopecurus myosuroides), broadleaf signalgrass (Brachiaria decumbens), cocklebur (Xanthium strumarium), corn (Zea mays), crabgrass (Digitaria sanguinalis), giant foxtail (Setaria faberii), lambsquarters (Chenopodium album), momingglory (Ipomoea hederacea), pigweed (Amaranthus retroflexus), rape (Brassica napus), soybean (Glycine max), sugar beet (Beta vulgaris), velvetleaf (Abutilon theophrasti), wheat (Triticum aestivum), wild oat (Avena fatua) and purple nutsedge (Cyperus rotundus) tubers were planted and treated preemergence with test chemicals formulated in a non-phytotoxic solvent mixture which included a surfactant.
(§2) At the same time, these crop and weed species were also treated with postemergence applications of test chemicals formulated in the same manner. Plants ranged in height from 2 to 18 cm (1- to 4-leaf stage) for postemergence treatments. Plant species in the flood test consisted of rice (Oryza sativa), smallflower flatsedge (Cyperus difformis), duck salad (Heteranthera limosa) and bamyardgrass (Echinochloa crus-galli) grown to the 2-leaf stage for testing. Treated plants and controls were maintained in a greenhouse for twelve to sixteen days, after which all species were compared to controls and visually evaluated. Plant response ratings, summarized in Table B, are based on a scale of 0 to 10 where 0 is no effect and 10 is complete control. A dash (−) response means no test result.

[2] = test system: blackgrass (Alopecurus myosuroides); test: Test B pre-/postemergence
Source text: as §1, §2

[3] = test system: broadleaf signalgrass (Brachiaria decumbens); test: Test B pre-/postemergence
Source text: as §1, §2

[4] = test system: cocklebur (Xanthium strumarium); test: Test B pre-/postemergence; details: for Plant response rating, Cocklebur: Postemergence; for Cocklebur plant response rating: Preemergence
Source text: as §1, §2

corn (Zea mays) = test: Test B pre-/postemergence
Source text: as §1, §2

[5] = test system: crabgrass (Digitaria sanguinalis); test: Test B pre-/postemergence
Source text: as §1, §2

[6] = test system: giant foxtail (Setaria faberii); test: Test B pre-/postemergence
Source text: as §1, §2

[7] = test system: momingglory (Ipomoea hederacea); test: Test B pre-/postemergence
Source text: as §1, §2

[8] = test system: pigweed (Amaranthus retroflexus); test: Test B pre-/postemergence
Source text: as §1, §2

[9] = test system: purple nutsedge (Cyperus rotundus); test: Test B pre-/postemergence
Source text: as §1, §2

rape (Brassica napus) = test: Test B pre-/postemergence
Source text: as §1, §2

soybean (Glycine max) = test: Test B pre-/postemergence
Source text: as §1, §2

[10] = test system: sugar beet (Beta vulgaris); test: Test B pre-/postemergence
Source text: as §1, §2

[11] = test system: velvetleaf (Abutilon theophrasti); test: Test B pre-/postemergence
Source text: as §1, §2

[12] = test system: wheat (Triticum aestivum); test: Test B pre-/postemergence
Source text: as §1, §2

wild oat (Avena fatua) = test: Test B pre-/postemergence
Source text: as §1, §2

[13] = test system: bamyardgrass (Echinochloa crus-galli); test: Test B flood test
In short: (§3)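 Each value is a visual injury score relative to controls, with 10 meaning complete control and 0 no effect. Evaluation took place twelve to sixteen days after the 2-leaf-stage plants were treated and kept in the greenhouse.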

[14] = test system: duck salad (Heteranthera limosa); test: Test B flood test
In short: as §3

rice (Oryza sativa) = test: Test B flood test
In short: as §3

[15] = test system: smallflower flatsedge (Cyperus difformis); test: Test B flood test
In short: as §3

[16] = Rate 62 g/ha, Postemergence (flood test)
[17] = Rate 125 g/ha, Postemergence, flood test
[18] = Rate 250 g/ha, Postemergence (flood test species)

COC(c1cccc(C(F)(F)F)c1)c1nc(-c2ccc(C(F)(F)F)cc2)ncc1C (racemic) [Compound 20]
2: Plant response rating, Blackgrass ([2]; Rate 62 g/ha, Postemergence) | Plant response rating, Blackgrass ([2]; Rate 125 g/ha, Postemergence) | Blackgrass plant response rating ([2]; Rate 125 g/ha, Preemergence) | Plant response rating, B. signalgrass ([3]; Rate 62 g/ha, Postemergence) | Plant response rating, B. signalgrass ([3]; Rate 125 g/ha, Postemergence) | Plant response rating, Crabgrass ([5]; Rate 62 g/ha, Postemergence) | Plant response rating, Crabgrass ([5]; Rate 250 g/ha, Preemergence) | Plant response rating, Giant foxtail ([6]; Rate 62 g/ha, Postemergence) | Plant response rating, Giant foxtail ([6]; Rate 125 g/ha, Postemergence) | Plant response rating, Sugarbeets ([10]; Rate 250 g/ha, Preemergence) | Plant response rating, Wheat ([12]; Rate 62 g/ha, Postemergence) | Plant response rating, Wild oats (wild oat (Avena fatua); Rate 62 g/ha, Postemergence) | Wild oats plant response rating (wild oat (Avena fatua); Rate 125 g/ha, Preemergence)
6: Plant response rating, Soybean (soybean (Glycine max); Rate 250 g/ha, Postemergence) | Plant response rating, Velvetleaf ([11]; Rate 125 g/ha, Postemergence)
4: Plant response rating, Bedstraw ([1]; Rate 62 g/ha, Postemergence) | Plant response rating, Bedstraw ([1]; Rate 125 g/ha, Postemergence) | Plant response rating, Bedstraw ([1]; Rate 250 g/ha, Postemergence) | Plant response rating, Blackgrass ([2]; Rate 250 g/ha, Preemergence) | Plant response rating, B. signalgrass ([3]; Rate 250 g/ha, Preemergence) | Plant response rating, Cocklebur ([4]; Rate 62 g/ha) | Plant response rating, Morningglory ([7]; Rate 125 g/ha, Postemergence) | Plant response rating, Morningglory ([7]; Rate 250 g/ha, Postemergence) | Plant response rating, Rape (rape (Brassica napus); Rate 125 g/ha, Postemergence) | Plant response rating, Soybean (soybean (Glycine max); Rate 62 g/ha, Postemergence) | Plant response rating, Velvetleaf ([11]; Rate 62 g/ha, Postemergence)
1: Plant response rating, Bedstraw ([1]; Rate 250 g/ha, Preemergence) | Blackgrass plant response rating ([2]; Rate 62 g/ha, Preemergence) | B. signalgrass plant response rating ([3]; Rate 125 g/ha, Preemergence) | Crabgrass plant response rating ([5]; Rate 125 g/ha, Preemergence) | Plant response rating, Giant foxtail ([6]; Rate 250 g/ha, Preemergence) | Plant response rating, Redroot pigweed ([8]; Rate 250 g/ha, Preemergence) | Wild oats plant response rating (wild oat (Avena fatua); Rate 62 g/ha, Preemergence)
5: Plant response rating, Cocklebur ([4]; Rate 125 g/ha) | Plant response rating, Redroot pigweed ([8]; Rate 62 g/ha, Postemergence) | Plant response rating, Rape (rape (Brassica napus); Rate 250 g/ha, Postemergence) | Plant response rating, Soybean (soybean (Glycine max); Rate 125 g/ha, Postemergence) | Plant response rating, Sugarbeets ([10]; Rate 125 g/ha, Postemergence)
8: Plant response rating, Redroot pigweed ([8]; Rate 250 g/ha, Postemergence)
0: Bedstraw plant response rating ([1]; Rate 62 g/ha, Preemergence) | Bedstraw plant response rating ([1]; Rate 125 g/ha, Preemergence) | B. signalgrass plant response rating ([3]; Rate 62 g/ha, Preemergence) | Cocklebur plant response rating ([4]; Rate 62 g/ha) | Cocklebur plant response rating ([4]; Rate 125 g/ha) | Corn plant response rating (corn (Zea mays); Rate 62 g/ha, Preemergence) | Corn plant response rating (corn (Zea mays); Rate 125 g/ha, Preemergence) | Plant response rating, Corn (corn (Zea mays); Rate 250 g/ha, Preemergence) | Crabgrass plant response rating ([5]; Rate 62 g/ha, Preemergence) | Giant foxtail plant response rating ([6]; Rate 62 g/ha, Preemergence) | Giant foxtail plant response rating ([6]; Rate 125 g/ha, Preemergence) | Morningglory plant response rating ([7]; Rate 62 g/ha, Preemergence) | Morningglory plant response rating ([7]; Rate 125 g/ha, Preemergence) | Plant response rating, Morningglory ([7]; Rate 250 g/ha, Preemergence) | Redroot pigweed plant response rating ([8]; Rate 62 g/ha, Preemergence) | Redroot pigweed plant response rating ([8]; Rate 125 g/ha, Preemergence) | Plant response rating, Nutsedge ([9]; Rate 62 g/ha, Postemergence) | Nutsedge plant response rating ([9]; Rate 62 g/ha, Preemergence) | Plant response rating, Nutsedge ([9]; Rate 125 g/ha, Postemergence) | Plant response rating, Nutsedge ([9]; Rate 250 g/ha, Postemergence) | Plant response rating, Nutsedge ([9]; Rate 250 g/ha, Preemergence) | Rape plant response rating (rape (Brassica napus); Rate 62 g/ha, Preemergence) | Rape plant response rating (rape (Brassica napus); Rate 125 g/ha, Preemergence) | Plant response rating, Rape (rape (Brassica napus); Rate 250 g/ha, Preemergence) | Soybean plant response rating (soybean (Glycine max); Rate 62 g/ha, Preemergence) | Soybean plant response rating (soybean (Glycine max); Rate 125 g/ha, Preemergence) | Plant response rating, Soybean (soybean (Glycine max); Rate 250 g/ha, Preemergence) | Sugarbeets plant response rating ([10]; Rate 62 g/ha, Preemergence) | Sugarbeets plant response rating ([10]; Rate 125 g/ha, Preemergence) | Velvetleaf plant response rating ([11]; Rate 62 g/ha, Preemergence) | Velvetleaf plant response rating ([11]; Rate 125 g/ha, Preemergence) | Plant response rating, Velvetleaf ([11]; Rate 250 g/ha, Preemergence) | Wheat plant response rating ([12]; Rate 62 g/ha, Preemergence) | Wheat plant response rating ([12]; Rate 125 g/ha, Preemergence) | Plant response rating, Wheat ([12]; Rate 250 g/ha, Preemergence) | Plant response rating, Barnyardgrass [13, 16] | Plant response rating, Barnyardgrass [13, 17] | Plant response rating, Barnyardgrass [13, 18] | Plant response rating, Ducksalad [14, 16] | Plant response rating, Ducksalad [14, 17] | Plant response rating, Ducksalad [14, 18] | Plant response rating, Rice (rice (Oryza sativa); [16]) | Plant response rating, Rice (rice (Oryza sativa); [17]) | Plant response rating, Rice (rice (Oryza sativa); [18]) | Plant response rating, S. Flatsedge [15, 16] | Plant response rating, S. Flatsedge [15, 17] | Plant response rating, S. Flatsedge [15, 18]
7: Plant response rating, Cocklebur ([4]; Rate 250 g/ha) | Plant response rating, Redroot pigweed ([8]; Rate 125 g/ha, Postemergence) | Plant response rating, Sugarbeets ([10]; Rate 250 g/ha, Postemergence) | Plant response rating, Velvetleaf ([11]; Rate 250 g/ha, Postemergence)
3: Plant response rating, Blackgrass ([2]; Rate 250 g/ha, Postemergence) | Plant response rating, B. signalgrass ([3]; Rate 250 g/ha, Postemergence) | Plant response rating, Corn (corn (Zea mays); Rate 62 g/ha, Postemergence) | Plant response rating, Corn (corn (Zea mays); Rate 125 g/ha, Postemergence) | Plant response rating, Corn (corn (Zea mays); Rate 250 g/ha, Postemergence) | Plant response rating, Crabgrass ([5]; Rate 125 g/ha, Postemergence) | Plant response rating, Crabgrass ([5]; Rate 250 g/ha, Postemergence) | Plant response rating, Giant foxtail ([6]; Rate 250 g/ha, Postemergence) | Plant response rating, Morningglory ([7]; Rate 62 g/ha, Postemergence) | Plant response rating, Rape (rape (Brassica napus); Rate 62 g/ha, Postemergence) | Plant response rating, Sugarbeets ([10]; Rate 62 g/ha, Postemergence) | Plant response rating, Wheat ([12]; Rate 125 g/ha, Postemergence) | Plant response rating, Wheat ([12]; Rate 250 g/ha, Postemergence) | Plant response rating, Wild oats (wild oat (Avena fatua); Rate 125 g/ha, Postemergence) | Plant response rating, Wild oats (wild oat (Avena fatua); Rate 250 g/ha, Postemergence) | Plant response rating, Wild oats (wild oat (Avena fatua); Rate 250 g/ha, Preemergence)
